According to US9233964B2, “Sulfamide piperazine derivatives as protein tyrosine kinase inhibitors and pharmaceutical use therof” (LEO PHARMA A/S, priority 2011, dated 2016):

Assays:
Format in all cases: biochemical
[1] = biological target: T1, JAK1 (Homo sapiens, UniProt P23458); assay: JAK kinase assay (HTRF, phosphorylation of synthetic peptide), JAK1; conditions: catalytic domain, ATP at Km (7 μM); read-out: JAK1 kinase inhibitory activity (EC50)
T1 construct: JAK1 (aa 850-1154) and TYK2 (aa 871-1187) are expressed with an N-terminally fused GST-tag; GST (N); purchased Carna Biosciences, Inc; host or cells: baculovirus expression system
Description: (§1) Human baculovirus-expressed JAK1, 2, 3 and TYK2 were purchased from Carna Biosciences, Inc. All four purified enzymes contain only the catalytic domain. JAK1 (aa 850-1154) and TYK2 (aa 871-1187) are expressed with an N-terminally fused GST-tag, and JAK2 and JAK3 with an N-terminally fused His-tag.
(§2) Inhibition of phosphorylation of a synthetic peptide was measured in an HTRF-based assay using the TK substrate-Biotin from the Cisbio HTRFKinEASE TK kit. First, 2 μl of TK solution (TK substrate-biotin in kinase buffer [1× enzymatic buffer from HTRFKinEASE TK kit, 1 mM DTT]) is added to a plate containing 1 μl prediluted compound (final assay concentration DMSO: 0.75%). Then, 5 μl kinase-ATP mix (prepared in kinase buffer) is added to the wells and the plates are incubated at RT for 20-30 min. For all four kinases a concentration of ATP that corresponded to the Km for ATP was used. The final concentrations of buffers, substrate, kinase and ATP were: JAK1: 50 mM Hepes buffer pH 7.0, 0.01% BSA, 10 mM MgCl2, 1 mM DTT, 7 μM ATP, 50 nM SEB, 1 μM TK Substrate-Biotin and 5 ng JAK1; JAK2: 50 mM Hepes buffer pH 7.0, 0.01% BSA, 5 mM MgCl2, 1 mM DTT, 4 μM ATP, 1 μM TK Substrate-Biotin and 0.1 ng JAK2; JAK3: 50 mM Hepes buffer pH 7.0, 0.01% BSA, 5 mM MgCl2, 1 mM DTT, 2 μM ATP, 1 μM TK Substrate-Biotin and 0.3 ng JAK3; TYK2: 50 mM Hepes buffer pH 7.0, 0.01% BSA, 5 mM MgCl2, 1 mM DTT, 13 μM ATP, 50 nM SEB, 1 μM TK Substrate-Biotin and 0.8 ng TYK2. Thereafter, the kinase reaction is stopped by adding 4 μl detection mix (final concentrations: 50 mM Hepes buffer pH 7.0, 0.01% BSA, 0.8 M KF, 20 mM EDTA, 42 nM Streptavidin-XL665 and 1:400 STK Ab Cryptate) and the plates are incubated overnight in the dark. The HTRF signal is read using an Envision plate reader.

[2] = biological target: T2, JAK2 (Homo sapiens, UniProt O60674); assay: JAK kinase assay (HTRF, phosphorylation of synthetic peptide), JAK2; conditions: catalytic domain, ATP at Km (4 μM); read-out: JAK2 kinase inhibitory activity (EC50)
T2 construct: All four purified enzymes contain only the catalytic domain; His (N); purchased Carna Biosciences, Inc; host or cells: baculovirus expression system
Description: as §1, §2

[3] = biological target: T3, JAK3 (Homo sapiens, UniProt P52333); assay: JAK kinase assay (HTRF, phosphorylation of synthetic peptide), JAK3; conditions: catalytic domain, ATP at Km (2 μM); read-out: JAK3 kinase inhibitory activity (EC50)
T3 construct: All four purified enzymes contain only the catalytic domain; His (N); purchased Carna Biosciences, Inc; host or cells: baculovirus expression system
Description: as §1, §2

[4] = biological target: T4, TYK2 (Homo sapiens, UniProt P29597); assay: JAK kinase assay (HTRF, phosphorylation of synthetic peptide), TYK2; conditions: catalytic domain, ATP at Km (13 μM); read-out: TYK2 kinase inhibitory activity (EC50)
T4 construct: JAK1 (aa 850-1154) and TYK2 (aa 871-1187) are expressed with an N-terminally fused GST-tag; GST (N); purchased Carna Biosciences, Inc; host or cells: baculovirus expression system
T4 sequence (P29597 871-1187): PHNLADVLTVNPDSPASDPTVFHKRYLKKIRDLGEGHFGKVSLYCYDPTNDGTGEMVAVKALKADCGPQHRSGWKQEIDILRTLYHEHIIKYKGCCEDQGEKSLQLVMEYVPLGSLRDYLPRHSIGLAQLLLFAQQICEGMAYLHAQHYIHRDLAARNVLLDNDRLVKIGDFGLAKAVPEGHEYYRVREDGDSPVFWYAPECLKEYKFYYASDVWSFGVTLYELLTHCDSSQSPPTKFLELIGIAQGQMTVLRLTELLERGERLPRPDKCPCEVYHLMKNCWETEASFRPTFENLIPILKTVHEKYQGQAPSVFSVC
Description: as §1, §2

T1 sequence (P23458 850-1154): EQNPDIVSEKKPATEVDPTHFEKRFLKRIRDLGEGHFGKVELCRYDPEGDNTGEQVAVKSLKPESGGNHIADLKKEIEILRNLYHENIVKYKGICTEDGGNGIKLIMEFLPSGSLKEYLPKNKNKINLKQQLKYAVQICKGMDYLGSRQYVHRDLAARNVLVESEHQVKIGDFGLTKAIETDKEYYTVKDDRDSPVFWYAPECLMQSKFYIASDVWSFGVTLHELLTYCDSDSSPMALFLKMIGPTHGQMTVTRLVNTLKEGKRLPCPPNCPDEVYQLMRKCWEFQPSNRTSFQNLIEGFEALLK
T2 sequence (O60674 849-1124 limits assumed): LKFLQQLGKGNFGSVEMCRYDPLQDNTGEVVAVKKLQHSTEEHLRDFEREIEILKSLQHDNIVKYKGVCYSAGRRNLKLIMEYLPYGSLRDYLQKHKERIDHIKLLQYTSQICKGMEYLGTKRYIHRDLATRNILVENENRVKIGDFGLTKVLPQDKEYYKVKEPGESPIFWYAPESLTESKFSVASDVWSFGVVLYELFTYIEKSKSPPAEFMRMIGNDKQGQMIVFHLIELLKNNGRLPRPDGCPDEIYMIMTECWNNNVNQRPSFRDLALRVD
T3 sequence (P52333 822-1111 limits assumed): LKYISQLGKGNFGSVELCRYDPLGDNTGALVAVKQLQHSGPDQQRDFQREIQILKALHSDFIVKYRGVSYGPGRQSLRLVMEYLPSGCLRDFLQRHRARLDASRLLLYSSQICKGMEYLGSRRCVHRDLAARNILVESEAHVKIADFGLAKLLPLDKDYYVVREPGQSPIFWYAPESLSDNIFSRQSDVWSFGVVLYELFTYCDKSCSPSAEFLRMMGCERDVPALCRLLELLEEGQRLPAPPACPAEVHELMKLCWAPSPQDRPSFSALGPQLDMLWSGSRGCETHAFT

SMILES	EC50 [1]	EC50 [2]	EC50 [3]	EC50 [4]
N#CC1CCN(S(=O)(=O)N2CCN(c3ncnc4[nH]ccc34)CC23CC3)CC1 [Example 39, 1-[7-(7H-Pyrrolo[2,3-d]pyrimidin-4-yl)-4,7-diaza-spiro[2.5]octane-4-sulfonyl]-piperidine-4-carbonitrile]	< 100 nM	< 100 nM	100 to 500 nM	> 500 nM
CN(c1ccccc1)S(=O)(=O)N1CCN(c2ncnc3[nH]ccc23)CC12CC2 [Example 40, 7-(7H-Pyrrolo[2,3-d]pyrimidin-4-yl)-4,7-diaza-spiro[2.5]octane-4-sulfonic acid methyl-phenyl-amide]	< 100 nM	< 100 nM	100 to 500 nM	100 to 500 nM
N#CC1CCCN(S(=O)(=O)N2CCN(c3ncnc4[nH]ccc34)CC23CC3)C1 (centres unmarked) [Example 42, 1-[7-(7H-Pyrrolo[2,3-d]pyrimidin-4-yl)-4,7-diaza-spiro[2.5]octane-4-sulfonyl]-piperidine-3-carbonitrile]	< 100 nM	< 100 nM	100 to 500 nM	> 500 nM
CN(C)S(=O)(=O)N1CCN(c2ncnc3[nH]ccc23)CC12CC2 [Example 45, 7-(7H-Pyrrolo[2,3-d]pyrimidin-4-yl)-4,7-diaza-spiro[2.5]octane-4-sulfonic acid dimethylamide]	< 100 nM	< 100 nM	< 100 nM	100 to 500 nM
CCOC(=O)CN(CCc1ccccc1)S(=O)(=O)N1CCN(c2ncnc3[nH]ccc23)CC12CC2 [Example 46, {Phenethyl-[7-(7H-pyrrolo[2,3-d]pyrimidin-4-yl)-4,7-diaza-spiro[2.5]octane-4-sulfonyl]-amino}-acetic acid ethyl ester]	< 100 nM	< 100 nM	100 to 500 nM	> 500 nM
O=S(=O)(N(CCc1ccccc1)CCc1ccc(F)cc1)N1CCN(c2ncnc3[nH]ccc23)CC12CC2 [Example 47, 7-(7H-Pyrrolo[2,3-d]pyrimidin-4-yl)-4,7-diaza-spiro[2.5]octane-4-sulfonic acid [2-(4-fluoro-phenyl)-ethyl]-phenethyl-amide]	100 to 500 nM	100 to 500 nM	> 500 nM	> 500 nM
O=S(=O)(N(CCc1ccccc1)CCc1cccc(F)c1)N1CCN(c2ncnc3[nH]ccc23)CC12CC2 [Example 48, 7-(7H-Pyrrolo[2,3-d]pyrimidin-4-yl)-4,7-diaza-spiro[2.5]octane-4-sulfonic acid [2-(3-fluoro-phenyl)-ethyl]-phenethyl-amide]	100 to 500 nM	100 to 500 nM	> 500 nM	> 500 nM
O=C(CN(CCc1ccccc1)S(=O)(=O)N1CCN(c2ncnc3[nH]ccc23)CC12CC2)NCc1ccccc1 [Example 49, N-Benzyl-2-{phenethyl-[7-(7H-pyrrolo[2,3-d]pyrimidin-4-yl)-4,7-diaza-spiro[2.5]octane-4-sulfonyl]-amino}-acetamide]	< 100 nM	< 100 nM	100 to 500 nM	> 500 nM
CC(C)NS(=O)(=O)N1CCN(c2ncnc3[nH]ccc23)CC12CC2 [Example 50, 7-(7H-Pyrrolo[2,3-d]pyrimidin-4-yl)-4,7-diaza-spiro[2.5]octane-4-sulfonic acid isopropylamide]	100 to 500 nM	< 100 nM	100 to 500 nM	100 to 500 nM
COc1ccc(CCN(C)S(=O)(=O)N2CCN(c3ncnc4[nH]ccc34)CC23CC3)cc1OC [Example 51, 7-(7H-Pyrrolo[2,3-d]pyrimidin-4-yl)-4,7-diaza-spiro[2.5]octane-4-sulfonic acid [2-(3,4-dimethoxy-phenyl)-ethyl]-methyl-amide]	< 100 nM	< 100 nM	< 100 nM	100 to 500 nM
CN(Cc1ccccc1)S(=O)(=O)N1CCN(c2ncnc3[nH]ccc23)CC12CC2 [Example 52, 7-(7H-Pyrrolo[2,3-d]pyrimidin-4-yl)-4,7-diaza-spiro[2.5]octane-4-sulfonic acid benzyl-methyl-amide]	< 100 nM	< 100 nM	< 100 nM	100 to 500 nM
O=S(=O)(N(CCO)CCO)N1CCN(c2ncnc3[nH]ccc23)CC12CC2 [Example 54, 7-(7H-Pyrrolo[2,3-d]pyrimidin-4-yl)-4,7-diaza-spiro[2.5]octane-4-sulfonic acid bis-(2-hydroxy-ethyl)-amide]	< 100 nM	< 100 nM	< 100 nM	100 to 500 nM
N#CCCCNS(=O)(=O)N1CCN(c2ncnc3[nH]ccc23)CC12CC2 [Example 55, 7-(7H-Pyrrolo[2,3-d]pyrimidin-4-yl)-4,7-diaza-spiro[2.5]octane-4-sulfonic acid (3-cyano-propyl)-amide]	< 100 nM	< 100 nM	< 100 nM	100 to 500 nM
N#CCCCN(CCCC#N)S(=O)(=O)N1CCN(c2ncnc3[nH]ccc23)CC12CC2 [Example 56, 7-(7H-Pyrrolo[2,3-d]pyrimidin-4-yl)-4,7-diaza-spiro[2.5]octane-4-sulfonic acid bis-(3-cyano-propyl)-amide]	< 100 nM	< 100 nM	< 100 nM	100 to 500 nM
N#CCCCN(CCCc1ccccc1)S(=O)(=O)N1CCN(c2ncnc3[nH]ccc23)CC12CC2 [Example 57, 7-(7H-Pyrrolo[2,3-d]pyrimidin-4-yl)-4,7-diaza-spiro[2.5]octane-4-sulfonic acid (3-cyano-propyl)-(3-phenyl-propyl)-amide]	< 100 nM	< 100 nM	< 100 nM	> 500 nM
CN(CCc1ccccc1)S(=O)(=O)N1CCN(c2ncnc3[nH]ccc23)CC12CC2 [Example 58, 7-(7H-Pyrrolo[2,3-d]pyrimidin-4-yl)-4,7-diaza-spiro[2.5]octane-4-sulfonic acid methyl-phenethyl-amide]	< 100 nM	< 100 nM	< 100 nM	100 to 500 nM
CN(CC1CC1)S(=O)(=O)N1CCN(c2ncnc3[nH]ccc23)CC12CC2 [Example 59, N-(cyclopropylmethyl)-N-methyl-5-(7H-pyrrolo[2,3-d]pyrimidin-4-yl)-5,8-diazaspiro[2.5]octane-8-sulfonamide]	< 100 nM	< 100 nM	< 100 nM	< 100 nM
CN(CC1CCC1)S(=O)(=O)N1CCN(c2ncnc3[nH]ccc23)CC12CC2 [Example 60, N-(cyclobutylmethyl)-N-methyl-5-(7H-pyrrolo[2,3-d]pyrimidin-4-yl)-5,8-diazaspiro[2.5]octane-8-sulfonamide]	< 100 nM	< 100 nM	< 100 nM	< 100 nM
CN(C1CCCC1)S(=O)(=O)N1CCN(c2ncnc3[nH]ccc23)CC12CC2 [Example 61, N-cyclopentyl-N-methyl-5-(7H-pyrrolo[2,3-d]pyrimidin-4-yl)-5,8-diazaspiro[2.5]octane-8-sulfonamide]	< 100 nM	< 100 nM	< 100 nM	100 to 500 nM
CN(CC1CCC(F)(F)CC1)S(=O)(=O)N1CCN(c2ncnc3[nH]ccc23)CC12CC2 [Example 62, N-[(4,4-difluorocyclohexyl)methyl]-N-methyl-5-(7H-pyrrolo[2,3-d]pyrimidin-4-yl)-5,8-diazaspiro[2.5]octane-8-sulfonamide]	< 100 nM	< 100 nM	< 100 nM	< 100 nM
